Laboratory results as given in US6943151B2, “Method of inhibiting bone resorption and/or promoting bone formation using GLP-2 and related compounds” (Sanos Bioscience A/S, priority 2000, dated 2005).

What was measured:
S-CTX (bone resorption) = assay: Serum C-telopeptide fragments of collagen type I degradation (S-CTX) by serum CrossLaps ELISA, marker of bone resorption, after administration to human subjects; type: in vivo
Description: In these Examples Haematology and serum chemistry including glucose were measured using an auto analyser (Vitros). Serum FSH was measured by IRMA (Coat-A-Count®, DPC, Los Angeles, Calif.). Serum C-telopeptide fragments of collagen type I degradation (S-CTX) were measured by ELISA, serum CrossLaps™ assay (Osteometer BioTech A/S—Denmark). Serum osteocalcin was determined by ELISA, an assay which determines the N-terminal mid segment of the molecule. Serum insulin and c-peptide were both assessed by RIA (Coat-A-Count® for insulin and Double Antibody C-peptide for c-peptide both DPC, Los Angeles, Calif.).
12 healthy women and men between 30-45, respectively 30-60, were included in a randomised, controlled cross over study comparing the effects of oral fructose on GLP-1, on GIP and on bone turnover. The individuals had not suffered diseases suspected to affect bone turnover such as cancer, rheumatoid arthritis or diseases compromising absorption from the gut or excretion/re-absorption from the kidney nor had they a history of serious diseases, which might influence the conduct of the study. A general laboratory screening including haematology and serum chemistry gave no indication of specific organ dysfunction. […]

GIP = assay: Level of GIP in blood after oral nutrient intake; type: in vivo, human; conditions: oral 75 g fructose; healthy women and men; result in words
From the text: (§1) 12 healthy women and men between 30-45, respectively 30-60, were included in a randomised, controlled cross over study comparing the effects of oral fructose on GLP-1, on GIP and on bone turnover. The individuals had not suffered diseases suspected to affect bone turnover such as cancer, rheumatoid arthritis or diseases compromising absorption from the gut or excretion/re-absorption from the kidney nor had they a history of serious diseases, which might influence the conduct of the study. A general laboratory screening including haematology and serum chemistry gave no indication of specific organ dysfunction. The individuals were not under influence of bone active medication, thus more than 3 months had passed since previous treatment with calcium, vitamin D, oestrogen or progestin in any administration form and the individuals had never been treated with bisphosphonates or fluoride.
After fasting from 10 p.m. the evening prior to an experiment, blood samples were collected between 7:30 a.m. and 8:30 a.m. Immediately thereafter oral fructose were initiated. At precisely 1, 2, 3, 6 and 9 hours after the first blood sample, blood samples were collected. A washout period of 2 weeks was instituted between each experiment.
Oral fructose consisted of 75 g fructose dissolved in 300 ml water with juice of a half lemon added. […]

GLP-1 = assay: Level of GLP-1 in blood after oral nutrient intake; type: in vivo, human; conditions: after 2 hours; oral 75 g fructose; healthy women and men
From the text: as §1
After fasting from 10 p.m. the evening prior to an experiment, blood samples were collected between 7:30 a.m. and 8:30 a.m. Immediately thereafter oral fructose were initiated. […]
The normal mixed meal consisted of rye bread, toast, butter, cheese, jam, yoghurt, banana, and orange juice (total weight 755 g), with an energy content of 3.92 MJ and a protein:carbohydrate:fat energy ratio of 10%:52%:37% evaluated from food tables.

[1] = Level of GLP-2 in blood after subcutaneous GLP-2 injection; type: in vivo; conditions: subcutaneous bolus injection of 400 μg synthetic human GLP-2; healthy women and men
From the text: 6 healthy women and 3 healthy men between 24-53 were included in a study comparing the effect of a GLP-2 injection on GLP-2intact and on bone turnover.
The description of the methodology of measurement of GLP-2intact and total GLP-2 and the description of the test persons was as described in detail in Hartmann, B. et al., J Clin Endocrinol Metab 2000; 85 (8):2884-2888.
Blood samples were drawn at regular intervals before, during, and after the injection.
The test persons received a subcutaneous bolus injection of 400 μg synthetic human GLP-2.

Compound: O=C(CO)[C@@H](O)[C@H](O)[C@H](O)CO [fructose]
- reduction in S-CTX (S-CTX (bone resorption); after 2 hours, oral intake after overnight fast, 12 healthy women and men): 36%
- level of GIP (GIP): almost maintained at the baseline
- occurrence (level) of GLP-1 compared to the baseline of 100% at To (GLP-1): 220%

Compound: GLP-2: synthetic human GLP-2, 33 amino acid peptide fragment of proglucagon (126-158)
- reduction in S-CTX (S-CTX (bone resorption); after 3 hours, subcutaneous bolus injection of 400 μg, 6 healthy women and 3 healthy men): 33%
- time to peak level of GLP-2 after the injection [1]: 1 h
